Experiment [1] deals with MLO-Y4 osteocytic cells. In words: Quantification of apoptotic cells (nuclear morphology, nGFP) in MLO-Y4 osteocytic cells. It counts as cell-based, murine. Particulars: for effect on dexamethasone (glucocorticoid)-induced apoptosis: inhibitor added 30 minute before dexamethasone 10^−6 M, 6 hour treatment. As to the method: The murine long bone-derived osteocytic cell line MLO-Y4 was kindly provided by Dr. Lynda Bonewald (University of Missouri-Kansas City, Kansas City, Mo.). Cells were cultured in phenol red-free AMEM supplemented with 2.5% FBS, 2.5% bovine calf serum, 100 U/ml penicillin and 100 μg/ml streptomycin. Cells were plated at 1-2×10^4 cells/cm^2 on collagen type I (Sigma Chemical Co., St. Louis, Mo.) coated plates, as described previously (Kato,Y. et al., J. Bone Min.Res., 12:2014-2023 (1997)).
MLO-Y4 cells stably expressing nuclear green fluorescent protein (nGFP) were obtained using the retroviral vector containing the nGFP, provided by Dr. Charles O'Brien (University of Arkansas for Medical Sciences, Little Rock, Ark.). The SV40 large T antigen nuclear localization sequence (Kalderon,D., et al., Cell, 39:499-509 (1984)) was attached to the carboxy-terminus of the cDNA construct encoding nGFP and subcloned into the pLXSN retroviral vector (Clontech, Palo Alto, Calif.). The plasmid harboring the retroviral construct was transiently transfected into the packaging cell line Phoenix Eco (Grignani, F. et al., Cancer Res. 58:14-19 (1998)) using SuperFect (Qiagen, Santa Clarita, Calif.). Supernatants containing retroviral particles were collected 24-48 h after transfection, and used immediately to infect cell cultures. Subconfluent MLO-Y4 osteocytic cells were exposed to viral supernatants in the presence of 8 μg/ml polybrene for 8 h and then incubated in fresh culture medium for 16 hours. Subsequently, cells were exposed to the supernatants containing the viral particles once more before being trypsinized and plated at low density. Transduced cells were selected by culturing them in the presence of 400 μg/ml of geneticin (G418, Sigma Chemical Co., St. Louis, Mo.) for three weeks (Plotkin,L. I., et al., J. Clin. Invest. 104:1363-1374 (1999)).
Apoptosis was induced in semiconfluent cultures by treatment for the indicated times with the glucocorticoid, dexamethasone (10^−6 M, Sigma Chemical Co., St. Louis, Mo.) or with etoposide (50 μM, Sigma Chemical Co., St. Louis, Mo.). Inhibitors were added 30 minute before the addition of the pro-apoptotic agent at the following concentrations: the RNA synthesis inhibitor actinomycin D (2×10^−6M, Sigma Chemical Co., St. Louis, Mo.), the protein synthesis inhibitor cycloheximide (10^−6 M, Sigma Chemical Co., St. Louis, Mo.), the MEK inhibitor PD98059 (50 μM, New England Biolabs, Beverly, Mass.), the Src inhibitor PP1 (5 μM, BioSource International, Camarillo, Calif.), the p38 inhibitor SB203580 (10^−4 M, Sigma Chemical Co., St. Louis, Mo.), the P13K inhibitor wortmannin (30 nM, Sigma Chemical Co., St. Louis, Mo.), the JNK inhibitor SP600125 (3 μM, EMD Biosciences, Inc, San Diego, Calif.) or the caspase-3 inhibitor Asp-Glu-Val-Asp-aldehide (DEVD-CHO) (50 nM, Biomol Research Lab., Inc., Plymouth Meeting, Pa.).
Following the treatment with the pro-apoptotic agents, cells were fixed for 8 minutes with neutral buffer formalin and stored at 4° C. until analyzed.
Cells were transiently transfected using Lipofectamine Plus (Gibco BRL, Gaithersburg, Md.) as previously described (Plotkin,L. I. et. al., J. Biol.Chem. 277:8648-8657 (2002) and Kousteni, S. et al., Cell, 104:719-730 (2001)). Briefly, cells were cultured in the absence of serum or antibiotics for 3 hours in the presence of 20 μl/ml Plus reagent and 10 μl/ml Lipofectamine together with […] of each of the following DNA constructs: pCDNA3 vector (obtained from Clontech, Palo Alto, Calif.), wild type FAK (provided by Dr. Sandro Aruffo, Bristol-Myers Squibb Pharmaceutical Research Institute, Princeton, N.J. (Chan,P. Y. et al., Methods Mol Biol. 2000.;99.(1.):109.-25. 269:20567-20574 (1994)), or wild type Pyk2, kinase deficient Pyk2 mutant or autophosphorylation deficient Pyk2 mutant (provided by Dr. Wen-Cheng Xiong, University of Alabama at Birmingham, Birmingham, Ala. (Xiong,W. and Parsons,J. T., J Cell Biol 139:529-53(1997)).

For experiment [2], the system named is MLO-Y4 osteocytic cells. The experiment can be described thus: Quantification of cell detachment (number of cytoplasmic processes) in MLO-Y4 cells. It counts as cell-based, murine. As to the method: Apoptosis was induced in semiconfluent cultures by treatment for the indicated times with the glucocorticoid, dexamethasone (10^−6 M, Sigma Chemical Co., St. Louis, Mo.) or with etoposide (50 μM, Sigma Chemical Co., St. Louis, Mo.). […]
The effect of dexamethasone or etoposide on cell detachment was quantified by enumerating the number of cytoplasmic processes of MLO-Y4 cells expressing GFP. […]
Apoptosis and cell attachment were determined in the same cultures by examining nuclear morphology (FIG. 2A) and quantifying the number of cytoplasmic processes (FIG. 2B), respectively. Apoptosis was determined by examining nuclear fragmentation and chromatin condensation and cell detachment by quantifying the number of cytoplasmic processes in the same cells. […]

Starred links: 1 amine or outer side, 2 acyl side, 3 side chain; linkers in the order of their positions; H or OH if unused. Positions of bridges follow the written chain, without caps; N, C: chain ends. Non-standard residues stand in square brackets, D forms with d. Residues, ends and D or L forms follow the SMILES beside them. Chains are numbered I, II in the order given. No end group written: not given here. Actinocin(9to1) = Cc1c2oc3c(C)ccc(C(=O)[*:1])c3nc-2c(C(=O)[*:2])c(N)c1=O; NMeV = CN[C@H](C(=O)O)C(C)C; Sar = CNCC(=O)O

Regarding `CC(=O)OCOC(=O)CN(CC(=O)OCOC(C)=O)c1ccccc1OCCOc1ccccc1N(CC(=O)OCOC(C)=O)CC(=O)OCOC(C)=O` [BAPTA-AM], the “effect on dexamethasone (glucocorticoid)-induced apoptosis” value in the experiment on MLO-Y4 osteocytic cells [1] is listed as “abolished”.
Still for that read-out and setting: in the case of `Cc1c2oc3c(C)ccc(C(=O)N[C@@H]4C(=O)N[C@H](C(C)C)C(=O)N5CCC[C@H]5C(=O)N(C)CC(=O)N(C)[C@@H](C(C)C)C(=O)O[C@@H]4C)c3nc-2c(C(=O)N[C@@H]2C(=O)N[C@H](C(C)C)C(=O)N3CCC[C@H]3C(=O)N(C)CC(=O)N(C)[C@@H](C(C)C)C(=O)O[C@@H]2C)c(N)c1=O` [actinomycin D] (I: T[dV]P[Sar][NMeV] / II: T[dV]P[Sar][NMeV]; ester I:1-I:C, II:1-II:C; linker I:N-II:N via Actinocin(9to1)) it was “dexamethasone was able to induce apoptosis”; in that of `C[C@@H]1C[C@@H]([C@H](O)CC2CC(=O)NC(=O)C2)C(=O)[C@@H](C)C1` [cycloheximide], “dexamethasone was able to induce apoptosis”.
On to `COc1cc([C@@H]2c3cc4c(cc3[C@@H](O[C@@H]3O[C@@H]5CO[C@@H](C)O[C@H]5[C@H](O)[C@H]3O)[C@H]3COC(=O)[C@H]23)OCO4)cc(OC)c1O` [etoposide], for which the “apoptosis (nuclear fragmentation and chromatin condensation)” value with MLO-Y4 osteocytic cells [1] (6 hours of treatment, dexamethasone 10^−6 M, etoposide 50 μM) is given as “induced apoptosis”. Moreover, in the experiment on MLO-Y4 osteocytic cells [1] (transient transfection wild type FAK, 6 hours), the “apoptosis in cells overexpressing FAK” value is “not protected”. Further, the “apoptosis in cells overexpressing Pyk2” value in the experiment with MLO-Y4 osteocytic cells [1] (transient transfection wild type Pyk2, 6 hours) is given as “remained responsive”. In addition, the “apoptosis in cells transfected with wild type Pyk2 vector” value in the experiment on MLO-Y4 osteocytic cells [1] (transient transfection, co-transfected nGFP, 6 hours) is reported as “exhibited apoptosis”. The “number of cells exhibiting three or less cytoplasmic processes (cell attachment)” value with MLO-Y4 osteocytic cells [2] (dexamethasone: as early as after 1 h, etoposide: duration of the experiment) is “did not exhibit changes in cell attachment”.
Take `[Gd]` [gadolinium]: the “effect on dexamethasone (glucocorticoid)-induced apoptosis” value with MLO-Y4 osteocytic cells [1] is “abolished”.
For `C/C=C(/C)C(=O)O[C@H]1C(C)=C2[C@H]([C@@H]1OC(=O)CCCCCCC)[C@@](C)(OC(C)=O)C[C@H](OC(=O)CCC)[C@@]1(O)[C@H]2OC(=O)[C@@]1(C)O` [thapsigargin], the “effect on dexamethasone (glucocorticoid)-induced apoptosis” value in the experiment on MLO-Y4 osteocytic cells [1] is “had no effect”.
With “Asp-Glu-Val-Asp-aldehide (DEVD-aldehyde)”, in the experiment on MLO-Y4 osteocytic cells [1], the “effect on dexamethasone (glucocorticoid)-induced apoptosis” value is reported as “abolished”. In addition, the “effect on dexamethasone-induced changes in cell attachment” value in the experiment on MLO-Y4 osteocytic cells [2] (inhibitor added 30 minute before dexamethasone 10^−6 M) was “did not reverse”.

The values above are taken from US20060121499A1, “Methods of identifying glucocorticoids without the detrimental side effects of bone loss” (priority 2004, published 2006).
